The results in this text go back to ChEMBL document CHEMBL4622892, “New class of alkynyl glycoside analogues as tyrosinase inhibitors” (Bioorg Med Chem Lett, 2020).

Active and inactive are the calls of the source. No cut-off for these calls is given here.

Test [1] addresses T1, Mushroom tyrosinase (Agaricus bisporus, UniProt O42713+Q00024+C7FF04+C7FF05).
Description: Inhibition of mushroom tyrosinase using L-tyrosine as substrate
Test [2] deals with T1, Mushroom tyrosinase. This is another data set of the same source.
Description: Inhibition of mushroom tyrosinase using L-DOPA as substrate
Test [3] deals with Mushroom tyrosinase (Agaricus bisporus) (UniProt O42713+Q00024+C7FF04+C7FF05). The test is described as follows: Reversible inhibition of mushroom tyrosinase using L-DOPA as substrate by Lineweaver-Burk plot analysis.
Test [4] deals with T1, Mushroom tyrosinase. The test is described as follows: Non-competitive inhibition of mushroom tyrosinase using L-DOPA as substrate by Lineweaver-Burk blot analysis.

`CO[C@H]1O[C@H](COC(C)=O)[C@@H](OCc2ccccc2)[C@H](OCc2ccccc2)[C@H]1OCc1ccccc1`: the IC50 against Mushroom tyrosinase [1] and against Mushroom tyrosinase [2] was more than 500 µM throughout.
Consider `C#CCO[C@@H]1O[C@H](COCc2ccccc2)[C@@H](OCc2ccccc2)[C@H](OCc2ccccc2)[C@H]1OCc1ccccc1`, for which the IC50 (commonly the concentration at which inhibition is half-maximal) against Mushroom tyrosinase [1] was 94.7 µM; against Mushroom tyrosinase [2] it was more than 500 µM.
For `CC#CCOC1O[C@H](CO)[C@@H](OCc2ccccc2)[C@H](OCc2ccccc2)[C@H]1OCc1ccccc1` (stereo partly specified), in that order: more than 500 µM and 80.4 µM.
As to `CC#CCOC1O[C@H](COC)[C@@H](OCc2ccccc2)[C@H](OCc2ccccc2)[C@H]1OCc1ccccc1` (stereo partly specified), the inhibition result in test [3] is “Active”. Besides, the IC50 is 73.6 µM at Mushroom tyrosinase [1] and 45.4 µM against Mushroom tyrosinase [2]. In addition, the Ki – broadly, a measure of affinity in units of concentration, obtained from inhibition or displacement – on Mushroom tyrosinase [4] was determined as 52 µM.
Take `COC[C@H]1OC(OCc2ccccc2)[C@H](OCc2ccccc2)[C@@H](OCc2ccccc2)[C@@H]1OCc1ccccc1` (stereo partly specified): the IC50 on Mushroom tyrosinase [1] is more than 500 µM; at Mushroom tyrosinase [2], 435 µM.
Taken in the same sequence, the figures for `OC[C@H]1OC(OCc2ccccc2)[C@H](OCc2ccccc2)[C@@H](OCc2ccccc2)[C@@H]1OCc1ccccc1` (stereo partly specified) were more than 500 µM and more than 500 µM.
Taken in the same sequence, the figures for `CC#CCOC1O[C@H](COC(C)=O)[C@@H](OCc2ccccc2)[C@H](OCc2ccccc2)[C@H]1OCc1ccccc1` (stereo partly specified) were 219 µM and 400 µM.
For `C#CCCOC1O[C@H](COC)[C@@H](OCc2ccccc2)[C@H](OCc2ccccc2)[C@H]1OCc1ccccc1` (stereo partly specified), in that order: more than 500 µM and more than 500 µM.
Regarding `C#CCCO[C@H]1O[C@@H]2CO[C@@H](c3ccccc3)O[C@H]2[C@H](OCc2ccccc2)[C@H]1OCc1ccccc1`, the IC50 on Mushroom tyrosinase [1] and against Mushroom tyrosinase [2] was more than 500 µM in each case.
Turning to `CC#CCO[C@H]1O[C@@H]2CO[C@@H](c3ccccc3)O[C@H]2[C@H](OCc2ccccc2)[C@H]1OCc1ccccc1`, the IC50 on Mushroom tyrosinase [1] and at Mushroom tyrosinase [2] was more than 500 µM each time.
Regarding `C#CCOC[C@H]1O[C@H](OC)[C@H](OCc2ccccc2)[C@@H](OCc2ccccc2)[C@@H]1OCc1ccccc1`, the IC50 against Mushroom tyrosinase [1] and at Mushroom tyrosinase [2] was more than 500 µM in each case.
Turning to `C#CCCCOC1O[C@H](COC)[C@@H](OCc2ccccc2)[C@H](OCc2ccccc2)[C@H]1OCc1ccccc1` (stereo partly specified), the IC50 on Mushroom tyrosinase [1] and at Mushroom tyrosinase [2] was more than 500 µM throughout.
Consider `C#CCOC[C@H]1OC(OCC#C)[C@H](OCc2ccccc2)[C@@H](OCc2ccccc2)[C@@H]1OCc1ccccc1` (stereo partly specified), for which the IC50 against Mushroom tyrosinase [1] and at Mushroom tyrosinase [2] was more than 500 µM each time.
Turning to `C#CCOC1O[C@H](COCc2ccccc2)[C@@H](OCc2ccccc2)[C@H](OCc2ccccc2)[C@H]1OCc1ccccc1` (stereo partly specified), the IC50 against Mushroom tyrosinase [1] is 81.9 µM; on Mushroom tyrosinase [2], more than 500 µM.
Taken in the same sequence, the figures for `C#CCOC[C@H]1OC(OCC#CC)[C@H](OCc2ccccc2)[C@@H](OCc2ccccc2)[C@@H]1OCc1ccccc1` (stereo partly specified) were more than 500 µM and 288 µM.
For the compound `c1ccc(COC[C@H]2OC(OCc3ccccc3)[C@H](OCc3ccccc3)[C@@H](OCc3ccccc3)[C@@H]2OCc2ccccc2)cc1` (stereo partly specified), the IC50 against Mushroom tyrosinase [1] and on Mushroom tyrosinase [2] was more than 500 µM each time.
`C#CCO[C@H]1O[C@@H]2CO[C@@H](c3ccccc3)O[C@H]2[C@H](OCc2ccccc2)[C@H]1OCc1ccccc1`: the IC50 was more than 500 µM against Mushroom tyrosinase [1] and 431 µM against Mushroom tyrosinase [2].
For `CC#CCO[C@@H]1O[C@H](COCc2ccccc2)[C@@H](OCc2ccccc2)[C@H](OCc2ccccc2)[C@H]1OCc1ccccc1`, in that order: 179 µM and more than 500 µM.
Taken in the same sequence, the figures for `CC#CCOC1O[C@@H]2CO[C@@H](c3ccccc3)O[C@H]2[C@H](O)[C@H]1O` (stereo partly specified) were more than 500 µM and more than 500 µM.
For `CC#CCO[C@H]1O[C@H](COCc2ccccc2)[C@@H](OCc2ccccc2)[C@H](OCc2ccccc2)[C@H]1OCc1ccccc1`, in that order: 321 µM and more than 500 µM.
Regarding `C#CCCOC1O[C@H](CO)[C@@H](OCc2ccccc2)[C@H](OCc2ccccc2)[C@H]1OCc1ccccc1` (stereo partly specified), the 50% inhibitory concentration (IC50) at Mushroom tyrosinase [1] and against Mushroom tyrosinase [2] was more than 500 µM throughout.
Take `COC[C@H]1O[C@H](OC)[C@H](OCc2ccccc2)[C@@H](OCc2ccccc2)[C@@H]1OCc1ccccc1`: the IC50 was more than 500 µM on Mushroom tyrosinase [1] and 494 µM at Mushroom tyrosinase [2].
Taken in the same sequence, the figures for `C#CCOC1O[C@H](COC(C)=O)[C@@H](OCc2ccccc2)[C@H](OCc2ccccc2)[C@H]1OCc1ccccc1` (stereo partly specified) were 461 µM and more than 500 µM.
For `CC#CCOC1O[C@@H]2CO[C@@H](c3ccccc3)O[C@H]2[C@H](OCc2ccccc2)[C@H]1OCc1ccccc1` (stereo partly specified), in that order: more than 500 µM and more than 500 µM.
As for `C#CCCCOC1O[C@H](CO)[C@@H](OCc2ccccc2)[C@H](OCc2ccccc2)[C@H]1OCc1ccccc1` (stereo partly specified), the IC50 against Mushroom tyrosinase [1] and against Mushroom tyrosinase [2] was more than 500 µM in each case.
`C#CCCO[C@@H]1O[C@@H]2CO[C@@H](c3ccccc3)O[C@H]2[C@H](OCc2ccccc2)[C@H]1OCc1ccccc1`: the IC50 against Mushroom tyrosinase [1] and on Mushroom tyrosinase [2] was more than 500 µM throughout.
As for `C#CCOC1O[C@H](CO)[C@@H](OCc2ccccc2)[C@H](OCc2ccccc2)[C@H]1OCc1ccccc1` (stereo partly specified), the IC50 on Mushroom tyrosinase [1] and against Mushroom tyrosinase [2] was more than 500 µM each time.
Regarding `C#CCO[C@@H]1O[C@@H]2CO[C@@H](c3ccccc3)O[C@H]2[C@H](OCc2ccccc2)[C@H]1OCc1ccccc1`, the half-maximal inhibitory concentration (IC50) against Mushroom tyrosinase [1] and at Mushroom tyrosinase [2] was more than 500 µM in each case.
`C#CCCOC1O[C@@H]2CO[C@@H](c3ccccc3)O[C@H]2[C@H](O)[C@H]1O` (stereo partly specified): the figures for the IC50 against Mushroom tyrosinase [1] and against Mushroom tyrosinase [2] were 463 µM and 207 µM, respectively.
For `C#CCCOC1O[C@@H]2CO[C@@H](c3ccccc3)O[C@H]2[C@H](OCc2ccccc2)[C@H]1OCc1ccccc1` (stereo partly specified), in that order: more than 500 µM and 257 µM.
For `C#CCCCOC1O[C@H](COCc2ccccc2)[C@@H](OCc2ccccc2)[C@H](OCc2ccccc2)[C@H]1OCc1ccccc1` (stereo partly specified), in that order: 105 µM and more than 500 µM.
For `CC#CCO[C@@H]1O[C@@H]2CO[C@@H](c3ccccc3)O[C@H]2[C@H](OCc2ccccc2)[C@H]1OCc1ccccc1`, in that order: more than 500 µM and more than 500 µM.
`C#CCOC1O[C@@H]2CO[C@@H](c3ccccc3)O[C@H]2[C@H](OCc2ccccc2)[C@H]1OCc1ccccc1` (stereo partly specified): the values for the IC50 against Mushroom tyrosinase [1] and at Mushroom tyrosinase [2] were more than 500 µM and 383 µM, respectively.
Consider `CO[C@H]1O[C@H](CO)[C@@H](OCc2ccccc2)[C@H](OCc2ccccc2)[C@H]1OCc1ccccc1`, for which the IC50 against Mushroom tyrosinase [1] and on Mushroom tyrosinase [2] was more than 500 µM in each case.
With `C#CCOC1O[C@H](COC)[C@@H](OCc2ccccc2)[C@H](OCc2ccccc2)[C@H]1OCc1ccccc1` (stereo partly specified), the IC50 at Mushroom tyrosinase [1] and at Mushroom tyrosinase [2] was more than 500 µM in each case.
Take `C#CCCOC1O[C@H](COCc2ccccc2)[C@@H](OCc2ccccc2)[C@H](OCc2ccccc2)[C@H]1OCc1ccccc1` (stereo partly specified): in test [3], the inhibition entry is “Active”. Also, the IC50 amounted to 150 µM against Mushroom tyrosinase [1] and 34.3 µM at Mushroom tyrosinase [2]. At Mushroom tyrosinase [4], this compound had a Ki of 49 µM.
On to `C#CCOC1O[C@@H]2CO[C@@H](c3ccccc3)O[C@H]2[C@H](O)[C@H]1O` (stereo partly specified), for which the IC50 against Mushroom tyrosinase [1] and against Mushroom tyrosinase [2] was more than 500 µM in each case.
Take `C#CCCOC1O[C@H](COC(C)=O)[C@@H](OCc2ccccc2)[C@H](OCc2ccccc2)[C@H]1OCc1ccccc1` (stereo partly specified): the concentration for half-maximal inhibition (IC50) against Mushroom tyrosinase [1] is 268 µM; against Mushroom tyrosinase [2], more than 500 µM.
Taken in the same sequence, the figures for `C#CCOC[C@H]1OC(OCc2ccccc2)[C@H](OCc2ccccc2)[C@@H](OCc2ccccc2)[C@@H]1OCc1ccccc1` (stereo partly specified) were 205 µM and more than 500 µM.
For `CC#CCOC[C@H]1OC(OCc2ccccc2)[C@H](OCc2ccccc2)[C@@H](OCc2ccccc2)[C@@H]1OCc1ccccc1` (stereo partly specified), in that order: more than 500 µM and more than 500 µM.
For the compound `CO[C@H]1O[C@H](COCc2ccccc2)[C@@H](OCc2ccccc2)[C@H](OCc2ccccc2)[C@H]1OCc1ccccc1`, the IC50 against Mushroom tyrosinase [1] is 191 µM; on Mushroom tyrosinase [2] it was more than 500 µM.
Taken in the same sequence, the figures for `C#CCCCOC1O[C@H](COC(C)=O)[C@@H](OCc2ccccc2)[C@H](OCc2ccccc2)[C@H]1OCc1ccccc1` (stereo partly specified) were 208 µM and more than 500 µM.
For `CC#CCOC[C@H]1OC(OC)[C@H](OCc2ccccc2)[C@@H](OCc2ccccc2)[C@@H]1OCc1ccccc1` (stereo partly specified), the IC50 against Mushroom tyrosinase [1] was 274 µM; against Mushroom tyrosinase [2] it was more than 500 µM.
Taken in the same sequence, the figures for `C#CCO[C@H]1O[C@H](COCc2ccccc2)[C@@H](OCc2ccccc2)[C@H](OCc2ccccc2)[C@H]1OCc1ccccc1` were more than 500 µM and more than 500 µM.
Taken in the same sequence, the figures for `C#CCOC1O[C@H](COCC#CC)[C@@H](OCc2ccccc2)[C@H](OCc2ccccc2)[C@H]1OCc1ccccc1` (stereo partly specified) were more than 500 µM and more than 500 µM.
`CC(=O)OC[C@H]1OC(OCc2ccccc2)[C@H](OCc2ccccc2)[C@@H](OCc2ccccc2)[C@@H]1OCc1ccccc1` (stereo partly specified): the IC50 against Mushroom tyrosinase [1] was 273 µM; against Mushroom tyrosinase [2] it was 357 µM.
